This is an account of results in patent US20050119301A1, “Treatment of restenosis” (priority 2001, published 2005).

The structures appear in SMILES notation. Where “and” joins values, the source holds several entries; their conditions need not be identical. Identical values can stand only once. Bounds are passed on as bounds.

Assay [1] is described as follows: a-tocopheroxyl radical attenuating ability (TRAA) assay in micelles. Particulars: for TRAA, HTAC Micelle (positive) / TRAA, SDS Micelle (negative): 10 μM, relative rate constant of a-tocopheroxyl radical decay with/without sample, large = active. It is filed as biochemical. How it is done:
The a-tocopheroxyl radical attenuating ability (TRAA) assay has been described in detail by Witting et al. (1997). Briefly, one hundred mM stock solutions of cetyltrimethyl ammonium chloride (HTAC) and sodium dodecyl sulphate (SDS) were prepared in phosphate buffer. Micellular dispersions of a-tocopherol were prepared by diluting an ethanolic solution of a-tocopherol (0.2 M) into micelles at a final vitamin concentration of […]. This resulting solution was sonicated for 15 sec at which time it was completely homogenous.
Aliquots of the a-tocopherol-containing micells were placed into the neck of an ESR flat cell […] and placed 0.5 m from a 125 W Osram HQL-Mercury fluorescent bulb used as a UV light source. To increase the light intensity, the frosted casing of the bulb was removed. Samples were irradiated for 3 min, followed by thorough mixing and subsequent transfer of the flat cell to the corresponding temperature-controlled Dewar insert in the ESR cavity, where the sample was allowed to equilibrate to 37° C. This procedure afforded a-tocopheroxyl radical (a-TO) between […] as estimated against a 10 mM TPDI nitroxide standard. ESR spectra were obtained at 9.41 GHz with modulation amplitude 1.0 G, microwave power […], and modulation frequency 12.5 kHz using a Bruker ESP 300 ESR spectrometer fitted with an X-band cavity.
After accumulation of the T=0 min spectrum, the flat cell arrangement containing a-TO was removed from the ESR cavity and the solution was gently coaxed into the neck of the flat cell under positive pressure. The compound of choice was then added to give a final concentration of 10 mM and the treated sample was replaced in the cavity and allowed to equilibrate to standard conditions, and sampling was resumed. The time-dependent decay of ESR signal intensity for a-TO was measured both in the presence and absence of the added co-antioxidant (10 mM) using a sweep time of 20.5 sec, averaging the output from three successive sweeps at each time point, and averaging the results of three separate experiments.
Results are expressed as the relative rate constant of decay of a-tocopheroxyl radicals in the presence of the test sample divided by the relative rate constant of decay of a-tocopheroxyl radicals in the absence of the test sample. TRAA approaching unity is considered to have poor synergistic activity, whereas active compounds show large values because they eliminate the a-tocopheroxyl radicals immediately upon mixing. Ascorbate was used as a positive control.

The subject of a further assay is LDL. As to the kind of experiment: LDL antioxidation test (CuCl2-initiated LDL oxidation, lag time). Particulars: Table 3, 10 μM; for Lag Time: control 20 min. Format: biochemical, human.
The subject of a further assay is human LDL. As to the kind of experiment: Prevention of tocopherol-mediated peroxidation (anti-TMP test). Particulars: 10 mM. Format: biochemical. How it is done: The test indirectly assesses the ability of a compound to synergise with a-tocopherol in human LDL undergoing mild and chemically controlled oxidation. Oxidation is measured by the accumulation of cholesterol ester hydroperoxides at a time point corresponding to 20% consumption of endogenous a-tocopherol.
Briefly, ascorbate and ubiquinol-10-free LDL (1 mM in apoB) was supplemented with an aliquot of a stock solution of the compound to be tested. The mixture was incubated at 37° C. for 10 min and subsequently oxidized at 37° C. with a low flux of water-soluble ROO generated from AAPH (4 mM). The time-dependent consumption of LDL a-tocopherol and accumulation of cholesteryllinolate hydroperoxide (Ch18:2-OOH) were monitored by HPLC with electrochemical and post-column chemiluminescence detection, respectively. The effectiveness of an antioxidant, assigned as its anti-TMP index (redox index), was defined as the relative amounts of Ch18:2-OOH formed with versus without the added antioxidant measured after 20% consumption of the endogenous a-tocopherol in the control sample (ie. in the absence in the antioxidant). […] Butylated hydroxytoluene (BHT, 10 mM) was used as a positive control.

Another assay deals with LDL receptor. As to the kind of experiment: LDL receptor expression on HepG2 cells, [125I]-LDL specific binding. It is filed as cell-based, human. To be noted: for LDL receptor expression, Experiment 3 / LDL receptor expression, Experiment 2 / LDL receptor expression, Experiment 1: 48 hours; for LDL receptor expression, Experiment 3: control 130 ± 18; for LDL receptor expression, Experiment 2: control 261 ± 57; for LDL receptor expression, Experiment 1: control 283 ± 32; for effect on LDL binding / LDL receptor expression over control (in words): HepG2. How it is done: Confluent human hepatoma (HepG2) cells were preincubated in the absence or presence of the test compound (Cpd. 7, Cpd. 8 and Cpd. 12 at final concentration of 50 nM, 500 nM and […]) for 48 hours, in complete DMEM medium containing 10% fetal bovine serum (FBS). Serum deprivation (i.e. 0.5% FBS) was used as a positive control to induce LDL receptor expression. Following preincubation, cells were washed before […] of [^125I]-LDL (specific activity 6.5-29.5 cpm/fmol) was added and the cells incubated at 4° C. for another 4 hours in the absence (for total binding) and presence of […] unlabelled LDL (to assess non-specific binding). Cells were then washed, lysed (0.1 M NaOH), and the radioactivity and protein content (BCA assay) of the lysate determined. The number of LDL receptors was determined from the specific binding (total binding minus non-specific binding), assuming one molecule of LDL binds per LDL receptor. Three independent experiments (each in triplicate) were performed with different batches of cells and [^125I]-LDL.
To determine the concentration of LDL needed to reach binding saturation, confluent HepG2 cells were incubated in 12-well plates with increasing concentrations of [^125I]-LDL in the presence of excess (i.e., […]) unlabelled LDL. […] Using this concentration, the time required to reach saturation binding at 4° C. was determined to be approximately 4 hours. These established optimal conditions were used for all subsequent binding assays.

As for `O=C1c2ccc(O)cc2OCC1c1ccc(O)cc1` (stereo not shown) [Cpd. 5], in assay [1], the “TRAA, HTAC Micelle (positive)” value was 5.3 and 5.4. In the assay on LDL, the “% Increase in Time” value worked out at 0% and the “Lag Time” value came out at 20 min.

On to `Oc1ccc(C2COc3cc(O)ccc3C2O)cc1` (stereo not shown) [Cpd. 7], for which the “LDL protective action in the presence of Vitamin E (in words)” value (“LDL protective action in the presence” for short) with human LDL is given as “low levels of activity”. In assay [1], the “TRAA, HTAC Micelle (positive)” value worked out at 1.4 ± 0.5 and the “TRAA, SDS Micelle (negative)” value turned out to be 1.9 ± 0.2. Besides, in the assay on LDL receptor (50 nM), the “LDL receptor expression, Experiment 3” value is 159 ± 30 fmol LDL receptors per mg cell protein and the “LDL receptor expression, Experiment 2” value is 239 ± 49 fmol LDL receptors per mg cell protein. Also, the “LDL receptor expression, Experiment 1” value in the assay on LDL receptor (50 nM, mean ± SD, n = 3) is 299 ± 45 fmol LDL receptors per mg cell protein. Moreover, in the assay with LDL receptor (500 nM), the “LDL receptor expression, Experiment 3” value is 171 ± 14 fmol LDL receptors per mg cell protein; the “LDL receptor expression, Experiment 2” value is listed as 199 ± 58 fmol LDL receptors per mg cell protein; the “LDL receptor expression, Experiment 1” value is on record as 281 ± 22 fmol LDL receptors per mg cell protein. Also, in the assay with LDL receptor, the “effect on LDL binding / LDL receptor expression over control (in words)” value is recorded as “increased LDL binding”. In the assay with LDL, the “% Increase in Time” value came to 100% and the “Lag Time” value is reported as 50 min.

On to `Oc1ccc(C2COc3cc(O)ccc3C2O)cc1` (stereo not shown) [Cpd. 8], for which the “LDL protective action in the presence” value with human LDL is reported as “low levels of activity”. In assay [1], the “TRAA, HTAC Micelle (positive)” value was found to be 2.37; the “TRAA, SDS Micelle (negative)” value is 1.26 and 1.58. Further, in the assay with LDL receptor (50 nM), the “LDL receptor expression, Experiment 3” value was 152 ± 24 fmol LDL receptors per mg cell protein and the “LDL receptor expression, Experiment 2” value is recorded as 291 ± 66 fmol LDL receptors per mg cell protein. In addition, in the assay with LDL receptor (50 nM, mean ± SD, n = 3), the “LDL receptor expression, Experiment 1” value is on record as 273 ± 22 fmol LDL receptors per mg cell protein. In the assay on LDL receptor (500 nM), the “LDL receptor expression, Experiment 3” value is given as 193 ± 18 fmol LDL receptors per mg cell protein; the “LDL receptor expression, Experiment 2” value is given as 291 ± 52 fmol LDL receptors per mg cell protein; the “LDL receptor expression, Experiment 1” value was 312 ± 42 fmol LDL receptors per mg cell protein. Also, the “effect on LDL binding / LDL receptor expression over control (in words)” value in the assay with LDL receptor is listed as “increased LDL binding”. In addition, in the assay on LDL, the “% Increase in Time” value is more than 600% and the “Lag Time” value is given as more than 140 min.

In the case of `Oc1ccc(C2=Cc3ccc(O)cc3OC2)cc1` [Cpd. 12], the “LDL protective action in the presence” value with human LDL is on record as “strong LDL protective action (low redox index)”. In addition, in assay [1], the “elimination of a-tocopheroxyl radicals (in words)” value was “induced high rate of decay and was active at eliminating a-tocopheroxyl radicals”; the “TRAA, HTAC Micelle (positive)” value was 26.77 and 25.70; the “TRAA, SDS Micelle (negative)” value is listed as “Almost immediate”. Further, in the assay with LDL receptor (50 nM), the “LDL receptor expression, Experiment 3” value is given as 156 ± 24 fmol LDL receptors per mg cell protein and the “LDL receptor expression, Experiment 2” value is listed as 134 ± 52 fmol LDL receptors per mg cell protein. For the same compound, the “LDL receptor expression, Experiment 1” value with LDL receptor (50 nM, mean ± SD, n = 3) is recorded as 319 ± 43 fmol LDL receptors per mg cell protein. Further, in the assay with LDL receptor (500 nM), the “LDL receptor expression, Experiment 3” value is 136 ± 23 fmol LDL receptors per mg cell protein; the “LDL receptor expression, Experiment 2” value was 233 ± 40 fmol LDL receptors per mg cell protein; the “LDL receptor expression, Experiment 1” value is 311 ± 35 fmol LDL receptors per mg cell protein. Besides, the “effect on LDL binding / LDL receptor expression over control (in words)” value in the assay on LDL receptor is “without consistent effect”. In the assay with LDL, the “% Increase in Time” value is reported as more than 600% and the “Lag Time” value was more than 140 min.
